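Method: 48-hour compound exposure of cells in 96-well plates, five concentrations, linear interpolation of endpoints. GI50: concentration for 50% inhibition of growth.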 Calls of active or inactive are those of the source. Cut-off read from the data, not from the text of the source: active = GI50 up to about 1.1 µM and inactive = higher.
Columns and labels:
Assay in all cases: NCI tumour cell line growth inhibition, 48 h
[1] = system: 786-0
[2] = system: ACHN
[3] = system: HCC 2998
[4] = system: HCT-15
[5] = system: HL-60
[6] = system: KM12
[7] = system: LOX IMVI
[8] = system: MOLT-4
[9] = system: NCI-H522
[10] = system: OVCAR-3
[11] = system: RPMI-8226
[12] = system: SF-268
[13] = system: SF-295
[14] = system: SK-MEL-2
[15] = system: SNB-19
[16] = system: SR
[17] = system: U-251
[18] = system: HOP-92
[19] = system: SNB-75

Compound | GI50 [1] | GI50 [2] | GI50 [3] | GI50 [4] [µM] | GI50 [5] | GI50 [6] | GI50 [7] | GI50 [8] | GI50 [9] | GI50 [10] | GI50 [11] | GI50 [12] | GI50 [13] | GI50 [14] | GI50 [15] | GI50 [16] | GI50 [17] | GI50 [18] | GI50 [19]
Cc1cc(N)c(C)c2c1[nH]c1ccc(O)cc12 | 91.8 µM (inactive) | > 100 µM (inactive) | > 100 µM (inactive) | > 100 | 79.3 µM (inactive) | > 100 µM (inactive) | > 100 µM (inactive) | 32.4 µM (inactive) | 17 µM (inactive) | 50.6 µM (inactive) | 48.4 µM (inactive) | > 100 µM (inactive) | > 100 µM (inactive) | > 100 µM (inactive) | > 100 µM (inactive) | 45 µM (inactive) | 88.5 µM (inactive) |  | 
O=C1C2ON3c4ccccc4C(=O)C3(c3ccccc3)C2C(=O)N1c1ccccc1 (centres undefined) | > 100 µM (inactive) | > 100 µM (inactive) | > 100 µM (inactive) | > 100 | > 100 µM (inactive) |  |  | > 100 µM (inactive) | > 100 µM (inactive) |  | > 100 µM (inactive) | > 100 µM (inactive) | > 100 µM (inactive) |  | > 100 µM (inactive) | > 100 µM (inactive) | > 100 µM (inactive) | > 100 µM (inactive) | > 100 µM (inactive)
Cc1c(-c2nnc(-c3ccccc3)o2)c(=O)n(-c2ccccc2)n1C | > 100 µM (inactive) | > 100 µM (inactive) | > 100 µM (inactive) | > 100 | > 100 µM (inactive) | > 100 µM (inactive) | > 100 µM (inactive) | > 100 µM (inactive) | > 100 µM (inactive) | > 100 µM (inactive) | > 100 µM (inactive) | > 100 µM (inactive) | > 100 µM (inactive) | > 100 µM (inactive) | > 100 µM (inactive) | > 100 µM (inactive) | > 100 µM (inactive) | > 100 µM (inactive) | > 100 µM (inactive)
On1c(-c2ccccc2)c(-c2ccccc2N2CCCC2)c2ccccc21 | > 100 µM (inactive) | > 100 µM (inactive) | > 100 µM (inactive) | > 100 | > 100 µM (inactive) | > 100 µM (inactive) | > 100 µM (inactive) | > 100 µM (inactive) | > 100 µM (inactive) | > 100 µM (inactive) | > 100 µM (inactive) | > 100 µM (inactive) | > 100 µM (inactive) | > 100 µM (inactive) | > 100 µM (inactive) | > 100 µM (inactive) | > 100 µM (inactive) | > 100 µM (inactive) | > 100 µM (inactive)
C=CC1(CC)/C(=N\O)C(CC)(CC)C(=O)N1O (centres undefined) | > 100 µM (inactive) | > 100 µM (inactive) | > 100 µM (inactive) | > 100 | > 100 µM (inactive) | > 100 µM (inactive) | > 100 µM (inactive) | > 100 µM (inactive) | > 100 µM (inactive) | > 100 µM (inactive) | > 100 µM (inactive) |  | > 100 µM (inactive) | > 100 µM (inactive) | > 100 µM (inactive) | > 100 µM (inactive) | > 100 µM (inactive) | 93.8 µM (inactive) | > 100 µM (inactive)
CC(=O)OC(C)(C)C1CCC(C)(C(O)COc2ccc(CCNC(=O)c3ccccc3)cc2)O1 (centres undefined) | > 100 µM (inactive) | 54.1 µM (inactive) |  | 46 | 15.5 µM (inactive) | 60.8 µM (inactive) | 31.4 µM (inactive) | 14.8 µM (inactive) | 51.2 µM (inactive) | 27.6 µM (inactive) | 20.7 µM (inactive) | > 100 µM (inactive) | 37.1 µM (inactive) | > 100 µM (inactive) | > 100 µM (inactive) | 47.1 µM (inactive) | 53.3 µM (inactive) | > 100 µM (inactive) | 91.6 µM (inactive)
CCOC(=O)C(=O)Nc1c(N(CC)CC)n2ccccc2nc1=O | > 100 µM (inactive) | > 100 µM (inactive) |  | > 100 |  | > 100 µM (inactive) |  | > 100 µM (inactive) | > 100 µM (inactive) | > 100 µM (inactive) | > 100 µM (inactive) | > 100 µM (inactive) |  | > 100 µM (inactive) | > 100 µM (inactive) | > 100 µM (inactive) | > 100 µM (inactive) | > 100 µM (inactive) | > 100 µM (inactive)
CC(=O)OCC1OC(Sc2ccccn2)C=CC1OC(C)=O (centres undefined) | > 100 µM (inactive) | > 100 µM (inactive) | > 100 µM (inactive) |  | > 100 µM (inactive) | > 100 µM (inactive) | > 100 µM (inactive) | > 100 µM (inactive) | > 100 µM (inactive) | > 100 µM (inactive) |  | > 100 µM (inactive) | > 100 µM (inactive) |  | > 100 µM (inactive) | > 100 µM (inactive) | > 100 µM (inactive) | > 100 µM (inactive) | > 100 µM (inactive)
Cc1ccc(NC(=O)/C(=N/NC(=O)C[N+](C)(C)C)c2nc3ccccc3nc2O)cc1 | > 100 µM (inactive) | > 100 µM (inactive) | > 100 µM (inactive) | 81.1 |  |  | 51.4 µM (inactive) | > 100 µM (inactive) |  | > 100 µM (inactive) | > 100 µM (inactive) | > 100 µM (inactive) | > 100 µM (inactive) | > 100 µM (inactive) | > 100 µM (inactive) | > 100 µM (inactive) | 27.4 µM (inactive) | > 100 µM (inactive) | > 100 µM (inactive)
C=CC1=C(C)/C(=C/C2=NC(=C\c3[nH]c(CC4NC(=O)C(C)/C4=C\C)c(C)c3CCC(=O)O)/C(CC(=O)O)=C2C)NC1=O (centres undefined) | > 100 µM (inactive) | > 100 µM (inactive) | > 100 µM (inactive) | > 100 | > 100 µM (inactive) | > 100 µM (inactive) | > 100 µM (inactive) | > 100 µM (inactive) | > 100 µM (inactive) | > 100 µM (inactive) |  | > 100 µM (inactive) | > 100 µM (inactive) | > 100 µM (inactive) | > 100 µM (inactive) | > 100 µM (inactive) | > 100 µM (inactive) | 70 µM (inactive) | > 100 µM (inactive)
COC(=O)/C(=C/c1ccc(OC)cc1)C(C(=O)O)=C1CCCCC1 | > 100 µM (inactive) | > 100 µM (inactive) |  | > 100 | > 100 µM (inactive) | > 100 µM (inactive) | > 100 µM (inactive) | > 100 µM (inactive) | > 100 µM (inactive) |  | > 100 µM (inactive) |  | > 100 µM (inactive) | > 100 µM (inactive) | > 100 µM (inactive) | > 100 µM (inactive) | > 100 µM (inactive) | > 100 µM (inactive) | > 100 µM (inactive)
Cc1ccc(NC(=O)CC2C(=O)Nc3ccccc3S2(=O)=O)cc1C (centres undefined) | > 100 µM (inactive) | > 100 µM (inactive) | > 100 µM (inactive) | > 100 | > 100 µM (inactive) |  | > 100 µM (inactive) | > 100 µM (inactive) | > 100 µM (inactive) | > 100 µM (inactive) | 62.8 µM (inactive) | > 10 µM (inactive) | > 100 µM (inactive) | > 100 µM (inactive) | > 100 µM (inactive) | > 100 µM (inactive) | > 100 µM (inactive) | > 100 µM (inactive) | > 100 µM (inactive)
CC[n+]1c(/C=C/c2cc(C(=O)OC)n3c2sc2ccccc23)sc2ccccc21 | 19.1 µM (inactive) | 19.1 µM (inactive) | 14.6 µM (inactive) | 18.8 | 13.9 µM (inactive) | 14.7 µM (inactive) | 17.5 µM (inactive) | 11.4 µM (inactive) | 15.6 µM (inactive) | 20.3 µM (inactive) | > 10 µM (inactive) | 21.5 µM (inactive) |  | 18.7 µM (inactive) |  | > 10 µM (inactive) |  | 15.5 µM (inactive) | 15.7 µM (inactive)
CN(C)c1ccc(/C=N/C23CC4CC(CC(C4)C2)C3)cc1 | > 100 µM (inactive) | > 100 µM (inactive) | > 100 µM (inactive) | > 100 | > 100 µM (inactive) | > 100 µM (inactive) | > 100 µM (inactive) | > 100 µM (inactive) | > 100 µM (inactive) | > 100 µM (inactive) | > 100 µM (inactive) | > 100 µM (inactive) | > 100 µM (inactive) | > 100 µM (inactive) | > 100 µM (inactive) | > 100 µM (inactive) | > 100 µM (inactive) |  | > 10 µM (inactive)
CCCCCCC1CCC2CCCC(C)N12 (centres undefined) | 30.1 µM (inactive) | 68.1 µM (inactive) | 22.6 µM (inactive) | 32.8 | 17.8 µM (inactive) | 30.6 µM (inactive) |  | 18.3 µM (inactive) | 22.9 µM (inactive) | > 100 µM (inactive) | 22.9 µM (inactive) | 43.4 µM (inactive) | 43.4 µM (inactive) | 28.2 µM (inactive) | > 100 µM (inactive) | 23.2 µM (inactive) | 10.5 µM (inactive) | 25.8 µM (inactive) | 39.8 µM (inactive)
N#Cc1cc([N+](=O)[O-])ccc1NC(=O)/C(=N/N)C(C(=O)c1ccc(Cl)c(Cl)c1)C1OC(=O)c2ccccc21 (centres undefined) | 59.3 µM (inactive) | 36.6 µM (inactive) | 65.9 µM (inactive) | 42.2 |  | 58.1 µM (inactive) | 21.7 µM (inactive) | 36.8 µM (inactive) | 26.1 µM (inactive) | 90.8 µM (inactive) | 46.1 µM (inactive) | 59.8 µM (inactive) | 26.4 µM (inactive) | 72.3 µM (inactive) | 69.3 µM (inactive) | 54.2 µM (inactive) | 42.9 µM (inactive) | 8.81 µM (inactive) | 
